# Like-named read-outs stand apart in the source and are kept apart here.
# Tests used:
# [1] = Preclinical toxicology studies
# From the text: (§1) Figwe 3 Chemical stnruu of disulphonated aluminium phthalocyamne.
# [2] = Aqueous solubility; settings: for aqueous solubility (in words): water / aqueous solution
# [3] = Stability of formulated product (shelf-life, reconstituted solution); settings: for pH of reconstituted solution: lyophilised product reconstituted with water
# From the text: (§2) Brsh Jowbnl d Cancer ( ) 72, 210-218 ? […] Figwe 3 Chemical stnruu of disulphonated aluminium phthalocyamne.
# [4] = In vitro anti-tumour activity; assay type: cell-based
# From the text: as §2
# [5] = In vivo anti-tumour activity
# From the text: as §2
# [6] = Preliminary murine toxicological study; assay type: in vivo; settings: PET solvent system formulation
# From the text: as §2
# [7] = cited from earlier work; for maximum tolerated dose (MTD): ref Judson et al., 1989
# [8] = Clinical pharmacokinetics in phase I trial; assay type: in vivo, human
# From the text: as §2
# [9] = system: gliomas; parameters: method as in Stevens and Newlands, 1993; settings: daily for five consecutive days; ref Stevens and Newlands, 1993; cited from earlier work
# [10] = Solubility in co-solvents, non-aqueous solvents and solubilising vehicles
# From the text: as §2
# [11] = Murine anti-tumour tests; assay type: in vivo
# From the text: as §2
# [12] = Solution stability / decomposition studies
# From the text: as §1
# [13] = system: colon 26; assay: Anti-tumour activity against colon 26 tumour; assay type: in vivo
# From the text: as §2
# [14] = system: P388 leukaemia; assay: Anti-tumour activity against P388 leukaemia; assay type: in vivo
# From the text: as §2
# [15] = system: L1210 leukaemia; assay: Anti-tumour activity against L1210 leukaemia; assay type: in vivo
# From the text: as §2
# [16] = system: B16 melanoma; assay: Anti-tumour activity against B16 melanoma; assay type: in vivo
# From the text: as §2
# [17] = cited from earlier work
# [18] = physchem
# [19] = system: solid tumour models; assay: Activity in solid tumour models; assay type: in vivo; settings: several solid tumour models
# From the text: as §2
# [20] = system: DNA polymerase-alpha; parameters: method as in Bucknall et al., 1973; Taguchi et al., 1978; settings: ref Bucknall et al., 1973; Taguchi et al., 1978; cited from earlier work
# [21] = Phase I/II clinical trials: toxicity; assay type: in vivo, human; settings: phase I trial
# From the text: as §2
# [22] = data from the drug's discoverers; ref Pettit et al., 1982; cited from earlier work
# [23] = Compatibility and adsorption studies with administration sets; assay type: physicochemical
# From the text: as §2
# [24] = system: NCI-H82; parameters: method as in Waud et al., 1992; settings: xenograft in athymic mice; ref Waud et al., 1992; cited from earlier work
# [25] = system: LOX amelanotic melanoma; parameters: method as in Waud et al., 1992; settings: xenograft in athymic mice; ref Waud et al., 1992; cited from earlier work
# [26] = system: MX-1 mammary carcinoma; parameters: method as in Waud et al., 1992; settings: xenograft in athymic mice; ref Waud et al., 1992; cited from earlier work
# [27] = parameters: method as in de Vries et al., 1993; settings: aqueous solution; ref de Vries et al., 1993; cited from earlier work
# [28] = parameters: method as in Torres-Labandeira et al., 1991; settings: 40% aqueous solution of HPCD; ref Torres-Labandeira et al., 1991; cited from earlier work
# [29] = phase I studies; ref Sessa et al., 1991; cited from earlier work
# [30] = system: acid or alkaline phosphatase; assay: Incubation of prodrug with phosphatase; assay type: biochemical; settings: incubated with acid or alkaline phosphatase
# From the text: as §2
structure (smiles),measurement,setting,value
CCCCCCCCCCCCCCCCCCOCC1(COP(=O)([O-])OCC[N+](C)(C)C)CCCO1 (centres unmarked) [SRI 62-834],local tolerance of simple aqueous formulations,[1]; simple aqueous formulations,irritation at the site of injection
same,solubility in aqueous systems,[2]; at 20C,50 % (w/ v)
same,time formulation is chemically and physically stable,[3]; Intralipid formulation,3 months
COc1ccc(/C=C\c2cc(OC)c(OC)c(OC)c2)cc1O [Combretastatin A4],in vitro anti-tumour activity,[4],excellent
same,in vivo activity,[5],no significant
same,local tolerance,[6],severe irritation at the injection site
"ClCC[N+]12CC[N+](CCCl)(CC1)C2.O=C([O-])/C=C\C(=O)O.O=C([O-])/C=C\C(=O)O [Dabis maleate, 1,4-bis (2'-chloroethyl)-1,4-diazabicyclo-[2.2.1] heptane dimaleate]",recommended phase II dose,"[7]; 6 h infusion for 6 weeks followed by 3 week drug vacation, ref Verweij et al., 1992",500 mg m2 week-'
same,recommended dose for phase II trials,"[7]; once every 3 weeks, ref van der Burg et al., 1991",750 mg m-2
same,dose-limiting toxicity,"[7]; phase I, once every 3 weeks, ref van der Burg et al., 1991",neurotoxicity
same,toxicity of prolonged infusion,"[7]; prolonged infusion, ref Verweij et al., 1992",neurotoxicity consisting of parasthesia and ataxia
Cn1nnc2c(C(N)=O)ncn2c1=O [Temozolomide],bioavailability,"[8]; human, in vivo, patients, 200 mg m2, oral vs i.v., read-out: bioavailability of oral formulation",~100%
same,dose dependency in the pharmacokinetics,"[8]; oral formulation, dose escalations",no evidence of dose dependency
same,absorption of oral formulation,"[8]; patients, oral",rapid
same,activity against gliomas,[9],evident
same,solubility in DMSO relative to mitozolomide,[10]; DMSO,less soluble
same,potency relative to mitozolomide,[11],less potent
same,toxicity relative to mitozolomide,[1]; in vivo,ess toxi
"CN(CO)c1nc(N(C)CO)nc(N(C)CO)n1 [Trimelamol, N2,N4,N6-trihydroxymethyl-N2,N4,N6-trimethylmelamine]",maximum tolerated dose (MTD),[7]; single administration,2400 mgm-2
same,maximum tolerated dose (MTD),[7]; thrice-daily schedule,1000 mg m2
same,pH of maximum stability,"[12]; HPLC, 25C, pH 3-12.5",10-11
same,half-life,"[12]; buffer, pH 10",> 30 h
same,solubility,[10]; 95% ethanol,~45000 µg/mL
same,solubility,[10]; DMA,~375000 µg/mL
same,solubility,[10]; propylene glycol,~15000 µg/mL
same,anti-tumour activity,[13],active
same,anti-tumour activity,[14],active
same,anti-tumour activity,[15],active
same,anti-tumour activity,[16],active
same,t/2 of reconstituted freeze-dried formulation,"[17]; 50% aqueous PEG 3400, 30 mg ml-1, not further diluted, ref Gibson et al. (1990)",46.3 h
same,solubility,[18]; water,10000 µg/mL
CS(=O)(=O)OCCN(CCCl)c1ccc(C(=O)N[C@@H](CCC(=O)O)C(=O)O)cc1 [Springer prodrug],time until degradation apparent,[3]; lyophilised material at 20-25C,≤ 2 weeks
same,time lyophilised material is stable,[3]; stored at 4C,up to 1 year
"CC(C)NC(=O)OCc1c(COC(=O)NC(C)C)c(-c2ccc(Cl)c(Cl)c2)n2c1CCC2 [NSC-278214, reference compound]",half-life,[12]; 66% aqueous acetone at 25 C,around 5 mi
same,anti-tumour activity,[19],activity
same,aqueous solubility (in words),[2],negligible
same,drug decomposed,"[17]; in 2 h, 10% fat emulsion (Intralipid), 0.7 mg ml-1, 1% DMA, 5% Cremophor EL, ref El-Sayed and Repta 1983",about 10%
"C[C@@]1(CO)[C@H](O)CC[C@@]2(C)[C@H]1CC[C@H]1C[C@@H]3C[C@@]12CC[C@]3(O)CO [Aphidicolin, reference compound]",anti-tumour activity,[13],observed
same,anti-tumour activity,[16],observed
same,effect on DNA polymerase,[20],inhibit
same,solubility,[18],~250 µg/mL
CCC/C=C/C=C/C(=O)O[C@H]1/C(=C/C(=O)OC)C[C@H]2C[C@H]([C@@H](C)O)OC(=O)C[C@H](O)C[C@@H]3C[C@H](OC(C)=O)C(C)(C)[C@](O)(C[C@@H]4C/C(=C/C(=O)OC)C[C@H](/C=C/C(C)(C)[C@]1(O)O2)O4)O3 [bryostatin 1],local toxicity thought to be associated with high ethanol concentration,[21]; ethanol solution,phlebitis
same,major toxicity,[21]; with or without in-line dilution,general myalgia
same,aqueous solubility (in words),[22],lmited
same,adsorption onto administration set surfaces,"[23]; PTFE-lined sets, ethanol concentration below 50%",significant
same,adsorption onto administration set surfaces,[23]; plastic not PTFE-lined (e.g. PVC),exten- sive adsorption
same,percentage of ethanol below which the drug precipitated,[10]; ethanolic solutions at predicted formulation concentrations,below 50%
"NC(=O)c1ncn2c(=O)n(CCCl)nnc12 [Mitozolomide, mitozolomide, reference compound]",toxicity for which trials were terminated,[7]; phase I and phase II clinical trials,unpredictable throm- bocYtopenia
"CNC(=O)OCc1nc(SC)n(C)c1COC(=O)NC.Cl [Carmethizole hydrochloride, carmethizole hydrochloride]",anti-tumour activity,[24],active
same,pH of maximal stability,[12]; about pH 1 or lower,~1
same,anti-tumour activity,[25],active
same,toxicity observed,[1]; preclinical toxicology studies,signifiant cardiotoxicity
same,solubility of the hydrochloride salt,[2]; hydrochloride salt,greater than 500 mg ml- 1
same,teA (time to 10% decomposition),"[3]; freeze-dried product reconstituted with water for injection, solution pH 2.8",~5.4 h
same,pH of reconstituted solution,[3],2.8
same,anti-tumour activity,[26],active
Cn1c(/C=C/CO)c(CO)c2c1C(=O)C=C(N1CC1)C2=O [E.O.9],pH of maximum stability,[27],around 9.5
same,aqueous solubility (in words),[2],lmited
same,time reconstituted solution is stable,"[3]; 0.5 mg ml-1 in 0.9% sodium chloride, room temperature",at least 24 h
same,solubility,[18],200 to 500 µg/mL
COc1ccc(O)cc1 [4-Hydroxyanisole],toxicity observed,"[21]; intravenous, ethanol vehicle",Hepatotoxicity was observed
O=C1N[C@H]2[C@H](O)[C@H](O)[C@@H](O)[C@H](O)[C@@H]2c2cc3c(c(O)c21)OCO3 [Pancratistatin],solubility in hydroxypropyl-beta-cyclodextrin solution,[28],approximately 1.2 mg ml-'
same,solubility,[10]; aqueous solubilisation with complexing agent,1000 µg/mL
same,solubility,[10]; solubility in a range of solvents,< 400 µg/mL
same,pH of reconstituted solution,[3],6.3
C[C@@]1(CO)[C@H](O)CC[C@@]2(C)[C@H]1CC[C@H]1C[C@@H]3C[C@@]12CC[C@]3(O)COC(=O)CN.Cl [aphidicolin glycinate],pharmacologically active levels,[29],had not been achieved
same,dose at which toxicity was dose limiting,"[7]; 1 h infusion for five consecutive days every 3 weeks, ref Sessa et al., 1991",2250 mg m-2
same,dose at which toxicity was dose limiting,"[7]; 24 h infusion every 3 weeks, ref Sessa et al., 1991",4500 mg m-2
same,dose-limiting toxicity,"[7]; both phase I studies, ref Sessa et al., 1991",Local toxicity
same,pH of maximal stability,[12]; pH 2.0-9.0 at 40-C,4.5
same,anti-tumour activity,[14],active
same,solubility of hydrochloride salt of the glycine amino group,[2]; hydrochloride salt,greater than 100 mgnml'
same,anti-tumour activity,[16],active
same,time diluted solution is stable,"[3]; 1 mg ml-1 in 5% dextrose or 0.9% sodium chloride injection, HPLC",more than 24 h
same,time reconstituted solution is stable,[3]; 100 mg ml-1 in water for injection,at least 24 h
CO[C@@H](/C(C)=C/C=C/C(C)=C/c1coc(C)n1)[C@@H](C)[C@@H]1C[C@H](O)[C@@]2(C)O[C@@H]2/C=C/[C@@H](C)[C@H]2C[C@H](CC(=O)O2)C[C@@H]2O[C@H]2C(=O)O1 [Rhizoxin],increase in degradation in presence of light vs protected from light,[12]; pH 5.6,approximately 2 -fold
same,solubility in t-butanol and t-butanol-water mixtures,"[10]; t-butanol, t-butanol-water",excellent
same,solubility,[18],12 µg/mL
CCN(CC)c1ccc2cc(C(=O)Nc3ccc4[nH]c(C(=O)N5C[C@@H](CCl)c6c5cc(OC(=O)Nc5ccccc5)c5[nH]cc(C)c65)cc4c3)oc2c1 [Carzelesin],solubility in common pharmaceutically acceptable solvents,[10],very low
same,time drug is stable in PET vehicle,"[3]; stored at -30C, PEG 400/polysorbate 80/ethanol",at least 1 year
COc1ccc(/C=C\c2cc(OC)c(OC)c(OC)c2)cc1OP(=O)(O)O [phosphate ester],in vivo activity,[5],inactive
same,stability in aqueous solutions (in words),[12]; aqueous solutions,adequate
same,release of parent molecule,[30],released the parent mokcule
same,aqueous solubility (in words),[2],adequate
